Article PMC4670726, “Systematic discovery of linear binding motifs targeting an ancient protein interaction surface on MAP kinases” (Molecular Systems Biology, 2015)
Ends that are not written are not given here.

Tests used:
ERK2 = target: T1, ERK2 (Homo sapiens, UniProt P28482); experiment: Fluorescence polarization (FP) competitive protein-peptide binding assay, ERK2; conditions: FP competition titration of unlabeled synthetic peptide against 50 nM fluorescently labeled pepRSK1, MAPK at ~60–80% complex formation, 384-well, triplicates, average FP signal fitted; limit of quantitation ~100 μM
T1 construct: hexa-histidine; made in house; host or cells: E. coli (Rosetta pLysS)
Protocol: (§1) In addition to confirming binding in the MAPK‐docking groove, the dissociation constant (Kd) of unlabeled test peptides could also be calculated.
(§2) Dashes indicate cases where the curves could not be fitted (the Kd is above the limit of quantitation of this assay, approximately ~100 μM). Peptides are grouped in two clusters, the first being the strong JNK1 binders (frequently with little or no ERK2/p38α‐binding ability). The second group (below the magenta line) contains peptides with strong ERK2‐ and p38α‐binding capacity (but often little or no affinity toward JNK1). […] Gab3+ is the ortholog of a peptide from Gab1 which was tested as positive in the dot‐blot experiments. The two Gab3 motifs are related neither by structure nor by evolutionary origin. […]
(§3) For fluorescence polarization (FP)‐based binding affinity measurements, known MAPK‐docking groove‐binding peptides were N‐terminally labeled with carboxyfluorescein or carboxytetramethylrhodamine (for ERK2, pepRSK1: […]; for p38α, pepMK2: […] or pepMEF2A: […]; for JNK1, pep JIP3: […]). […] Subsequently, increasing amounts of chemically synthesized test peptides were added, and the FP signal was measured with a Synergy H4 (BioTek Instruments) plate reader in 384‐well plates. The Ki for each unlabeled peptide was determined by fitting the data to a competition binding equation. […]

JNK1 = target: T2, JNK1 (Homo sapiens, UniProt P45983); experiment: Fluorescence polarization (FP) competitive protein-peptide binding assay, JNK1; conditions: FP competition titration of unlabeled synthetic peptide against 50 nM fluorescently labeled pep JIP3, MAPK at ~60–80% complex formation, 384-well, triplicates, average FP signal fitted; limit of quantitation ~100 μM
T2 construct: hexa-histidine; made in house; host or cells: E. coli (Rosetta pLysS)
Protocol: as §1, §2, §3

p38α = target: T3, p38α (Homo sapiens, UniProt Q16539); experiment: Fluorescence polarization (FP) competitive protein-peptide binding assay, p38α; conditions: FP competition titration of unlabeled synthetic peptide against 50 nM fluorescently labeled pepMK2 or pepMEF2A, MAPK at ~60–80% complex formation, 384-well, triplicates, average FP signal fitted; limit of quantitation ~100 μM
T3 construct: hexa-histidine; made in house; host or cells: E. coli (Rosetta pLysS)
Protocol: as §1, §2, §3

T2 sequence (P45983 whole entry): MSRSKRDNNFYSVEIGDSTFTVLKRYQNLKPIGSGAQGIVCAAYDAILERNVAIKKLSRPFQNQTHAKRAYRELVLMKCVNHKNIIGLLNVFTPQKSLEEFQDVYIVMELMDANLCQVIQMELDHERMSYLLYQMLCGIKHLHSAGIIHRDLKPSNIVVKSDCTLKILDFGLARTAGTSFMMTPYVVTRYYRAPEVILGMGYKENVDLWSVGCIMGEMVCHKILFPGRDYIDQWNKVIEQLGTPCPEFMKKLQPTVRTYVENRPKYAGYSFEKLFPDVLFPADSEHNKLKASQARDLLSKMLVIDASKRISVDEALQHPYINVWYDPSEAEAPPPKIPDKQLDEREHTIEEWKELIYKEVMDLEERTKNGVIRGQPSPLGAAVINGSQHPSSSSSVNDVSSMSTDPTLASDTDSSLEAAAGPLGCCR
T3 sequence (Q16539 whole entry): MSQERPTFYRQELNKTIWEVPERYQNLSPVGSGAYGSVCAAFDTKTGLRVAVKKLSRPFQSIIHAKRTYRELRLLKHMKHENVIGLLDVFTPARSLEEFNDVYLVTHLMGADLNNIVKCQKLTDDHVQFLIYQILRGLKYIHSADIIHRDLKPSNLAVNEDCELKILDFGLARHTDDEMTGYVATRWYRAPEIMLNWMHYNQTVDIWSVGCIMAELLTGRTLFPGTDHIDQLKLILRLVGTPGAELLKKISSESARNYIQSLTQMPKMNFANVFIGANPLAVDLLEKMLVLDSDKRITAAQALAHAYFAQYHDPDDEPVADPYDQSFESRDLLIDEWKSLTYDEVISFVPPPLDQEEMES
T1 sequence (P28482 whole entry): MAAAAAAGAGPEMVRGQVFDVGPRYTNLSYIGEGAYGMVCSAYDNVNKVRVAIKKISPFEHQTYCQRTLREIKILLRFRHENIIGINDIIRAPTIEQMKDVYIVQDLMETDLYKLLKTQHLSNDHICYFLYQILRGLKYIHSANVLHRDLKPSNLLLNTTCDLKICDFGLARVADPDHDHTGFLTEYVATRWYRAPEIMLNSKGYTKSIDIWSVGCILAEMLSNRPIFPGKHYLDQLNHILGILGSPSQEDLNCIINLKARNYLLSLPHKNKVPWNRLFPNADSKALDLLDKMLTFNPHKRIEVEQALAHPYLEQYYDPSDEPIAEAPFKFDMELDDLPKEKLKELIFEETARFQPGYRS

Kd (ERK2): 0.7 µM | Kd (JNK1): 13.2 µM | Kd (p38α): 2 µM
Sequence: KPQRKSRPPPLDLRNLS [GAB3+]
